Laboratory results as given in paper PMC4703101 (Chemical research in toxicology, 2015).
Counter-ions that a name gives are not always drawn. Marks after values point to notes of the source that are not given here.

Key:
[1] = Pharmacokinetics of plasma AαC and its metabolites after oral gavage of AαC; assay type: in vivo, mice (C57BL/6 background; WT, LCN, IECN); conditions: for AUC 0-24 h in plasma, fold greater in LCN mice than in WT mice / Cmax in plasma, fold greater in LCN mice than in WT mice / clearance rate, fold lower in LCN mice than in WT mice: for AαC also vs IECN; for CL/F / AUC(0-t) / Cmax / half-life / Tmax / AUC0-24h / t1/2 / AUC0-6h: plasma
Liver microsomal P450 [2] = test: Liver microsomal P450 oxidation; assay type: in vitro ADME, mouse; conditions: for P450 Oxidation: substrate 100 μM (AαC, PhIP, MeIQx), 10 μM (MROD), mean and SD, n ≥3, N.D. = not detected; for levels of metabolism, fold greater than AαC: 100 µM substrate
Liver microsomal P450 [3] = test: Liver microsomal P450 oxidation; assay type: in vitro ADME; conditions: Human liver microsome (H112); substrate 100 μM (AαC, PhIP, MeIQx), 10 μM (MROD)
Xanthine Dehydrogenase = Xanthine Dehydrogenase (Mus musculus, UniProt Q00519); test: Xanthine dehydrogenase assay, liver cytosol; assay type: in vitro ADME; conditions: WT and LCN liver cytosol
Xanthine Dehydrogenase, sequence (Q00519 whole entry): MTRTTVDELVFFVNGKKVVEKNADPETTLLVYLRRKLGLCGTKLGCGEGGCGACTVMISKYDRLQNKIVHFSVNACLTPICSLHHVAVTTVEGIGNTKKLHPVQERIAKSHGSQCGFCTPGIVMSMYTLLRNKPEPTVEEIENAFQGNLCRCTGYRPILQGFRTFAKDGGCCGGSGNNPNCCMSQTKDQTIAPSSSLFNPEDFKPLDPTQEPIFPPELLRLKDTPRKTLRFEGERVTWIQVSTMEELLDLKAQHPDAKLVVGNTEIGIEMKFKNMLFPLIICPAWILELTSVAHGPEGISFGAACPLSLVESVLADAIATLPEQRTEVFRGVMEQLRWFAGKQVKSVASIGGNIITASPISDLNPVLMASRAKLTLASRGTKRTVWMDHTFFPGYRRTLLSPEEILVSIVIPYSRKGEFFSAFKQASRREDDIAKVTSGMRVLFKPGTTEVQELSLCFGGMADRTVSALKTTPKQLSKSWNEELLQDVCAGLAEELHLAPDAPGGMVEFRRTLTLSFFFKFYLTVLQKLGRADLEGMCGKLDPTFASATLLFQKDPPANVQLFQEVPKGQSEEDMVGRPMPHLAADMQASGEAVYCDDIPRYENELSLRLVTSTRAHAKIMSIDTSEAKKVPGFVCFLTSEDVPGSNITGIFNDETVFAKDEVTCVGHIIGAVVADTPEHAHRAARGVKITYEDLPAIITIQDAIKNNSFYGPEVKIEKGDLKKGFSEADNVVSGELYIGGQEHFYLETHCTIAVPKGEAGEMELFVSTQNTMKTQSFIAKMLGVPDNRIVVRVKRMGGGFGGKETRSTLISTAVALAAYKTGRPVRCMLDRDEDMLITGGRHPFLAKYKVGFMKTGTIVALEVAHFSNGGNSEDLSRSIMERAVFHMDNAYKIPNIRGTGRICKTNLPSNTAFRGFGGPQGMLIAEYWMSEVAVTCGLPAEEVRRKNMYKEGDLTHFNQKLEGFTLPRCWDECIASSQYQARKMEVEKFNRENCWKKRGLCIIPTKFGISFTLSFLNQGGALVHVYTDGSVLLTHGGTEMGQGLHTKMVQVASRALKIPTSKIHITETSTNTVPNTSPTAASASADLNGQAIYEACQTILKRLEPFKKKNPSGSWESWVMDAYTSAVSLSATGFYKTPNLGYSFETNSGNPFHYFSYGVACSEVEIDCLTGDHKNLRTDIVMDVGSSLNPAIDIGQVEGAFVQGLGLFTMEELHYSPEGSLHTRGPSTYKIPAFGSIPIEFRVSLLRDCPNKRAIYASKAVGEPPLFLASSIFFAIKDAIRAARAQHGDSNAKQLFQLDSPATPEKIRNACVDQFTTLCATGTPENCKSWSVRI

Aldehyde Oxidase = test: Aldehyde oxidase assay, liver cytosol; conditions: WT and LCN liver cytosol
[4] = test system: Flavin monooxygenase (FMO); test: Microsomal flavin monooxygenase; conditions: WT and LCN liver microsomes
DNA [5] = conditions: liver, kidney, colon, and mammary gland of female Cyp1a2-null mice; cited from earlier work
DNA [6] = conditions: cited from earlier work
P450 1A2 = conditions: human hepatocytes in primary culture pretreated with furafylline; cited from earlier work
[7] = IECN mice, AαC 13.6 mg/kg oral gavage, mean ± S.D. n=5
[8] = LCN mice, AαC 1.36 mg/kg oral gavage, mean ± S.D. n=5
[9] = LCN mice, AαC 13.6 mg/kg oral gavage, mean ± S.D. n=5
[10] = WT mice, AαC 1.36 mg/kg oral gavage, mean ± S.D. n=5
[11] = WT mice, AαC 13.6 mg/kg oral gavage, mean ± S.D. n=5

## Nc1ccc2c(n1)[nH]c1ccccc12 [AαC, 2-Amino-9H-pyrido[2,3-b]indole]
[1]; AαC 13.6 mg/kg oral gavage
  AUC 0-24 h in plasma, fold greater in LCN mice than in WT mice: about 20 fold
  Cmax in plasma, fold greater in LCN mice than in WT mice: 10 fold
  clearance rate, fold lower in LCN mice than in WT mice: 20 fold
[1]; [7]
  CL/F: 5920 ± 1530 mL/h
[1]; [8]
  CL/F: 884 ± 378^a ml/h
[1]; [9]
  CL/F: 335 ± 146^b ml/h
[1]; [10]
  CL/F: 15300 ± 5690 mL/h
[1]; [11]
  CL/F: 6900 ± 1850 mL/h
[1]; male, C57BL/6, mouse, po, 1.36 mg/kg, AUC0-6h, LCN mice, AαC 1.36 mg/kg oral gavage, mean ± S.D. n=5
  AUC(0-t): 0.0452 ± 0.0169 µg·h/mL
[1]; male, C57BL/6, mouse, po, 1.36 mg/kg, AUC0-6h, WT mice, AαC 1.36 mg/kg oral gavage, mean ± S.D. n=5
  AUC(0-t): 0.0025 ± 0.0013 µg·h/mL
[1]; male, C57BL/6, mouse, po, 1.36 mg/kg, Cmax, LCN mice, AαC 1.36 mg/kg oral gavage, mean ± S.D. n=5
  Cmax: 0.0218 ± 0.0136 µg/mL
[1]; male, C57BL/6, mouse, po, 1.36 mg/kg, Cmax, WT mice, AαC 1.36 mg/kg oral gavage, mean ± S.D. n=5
  Cmax: 0.0014 ± 0.0009 µg/mL
[1]; male, C57BL/6, mouse, po, 1.36 mg/kg, t1/2, LCN mice, AαC 1.36 mg/kg oral gavage, mean ± S.D. n=5
  half-life: 1.4 ± 0.5 h
[1]; male, C57BL/6, mouse, po, 1.36 mg/kg, t1/2, WT mice, AαC 1.36 mg/kg oral gavage, mean ± S.D. n=5
  half-life: 1.7 ± 0.9 h
[1]; male, C57BL/6, mouse, po, 13.6 mg/kg
  Tmax: 1 h
[1]; male, C57BL/6, mouse, po, 13.6 mg/kg, AUC0-24h, IECN mice, AαC 13.6 mg/kg oral gavage, mean ± S.D. n=5
  AUC(0-t): 0.0684 ± 0.0182 µg·h/mL
[1]; male, C57BL/6, mouse, po, 13.6 mg/kg, AUC0-24h, LCN mice, AαC 13.6 mg/kg oral gavage, mean ± S.D. n=5
  AUC(0-t): 1.36 ± 0.595 µg·h/mL
[1]; male, C57BL/6, mouse, po, 13.6 mg/kg, AUC0-24h, WT mice, AαC 13.6 mg/kg oral gavage, mean ± S.D. n=5
  AUC(0-t): 0.0576 ± 0.0142 µg·h/mL
[1]; male, C57BL/6, mouse, po, 13.6 mg/kg, Cmax, IECN mice, AαC 13.6 mg/kg oral gavage, mean ± S.D. n=5
  Cmax: 0.0251 ± 0.0124 µg/mL
[1]; male, C57BL/6, mouse, po, 13.6 mg/kg, Cmax, LCN mice, AαC 13.6 mg/kg oral gavage, mean ± S.D. n=5
  Cmax: 0.272 ± 0.0859 µg/mL
[1]; male, C57BL/6, mouse, po, 13.6 mg/kg, Cmax, WT mice, AαC 13.6 mg/kg oral gavage, mean ± S.D. n=5
  Cmax: 0.0265 ± 0.0086 µg/mL
[1]; male, C57BL/6, mouse, po, 13.6 mg/kg, t1/2, IECN mice, AαC 13.6 mg/kg oral gavage, mean ± S.D. n=5
  half-life: 3.9 ± 2.2 h
[1]; male, C57BL/6, mouse, po, 13.6 mg/kg, t1/2, LCN mice, AαC 13.6 mg/kg oral gavage, mean ± S.D. n=5
  half-life: 2.8 ± 0.3 h
[1]; male, C57BL/6, mouse, po, 13.6 mg/kg, t1/2, WT mice, AαC 13.6 mg/kg oral gavage, mean ± S.D. n=5
  half-life: 3 ± 2.4 h
Liver microsomal P450 [2]; WT mouse liver microsomes
  P450 Oxidation: 103 ± 33 pmol/min/mg protein
Liver microsomal P450 [3]
  P450 Oxidation: 820 ± 60 pmol/min/mg protein
Xanthine Dehydrogenase
  AαC metabolism, if present (limit of detection by HPLC-UV): < 50 pmol/min/mg protein
Aldehyde Oxidase
  AαC metabolism, if present (limit of detection by HPLC-UV): < 50 pmol/min/mg protein
[4]
  AαC metabolism, if present (limit of detection by HPLC-UV): < 50 pmol/min/mg protein

## Nc1nc2[nH]c3ccccc3c2cc1OS(=O)(=O)O [AαC-3-OSO3H, 2-amino-9H-pyrido[2,3-b]indol-3-yl sulfate]
[1]; AαC 1.36 mg/kg oral gavage
  Cmax, fold higher in LCN mice than in WT mice: ~2 fold
[1]; AαC 13.6 mg/kg oral gavage
  AUC 0-24 h in plasma, fold greater in LCN mice than in WT mice: about 1.6 fold
[1]; [7]
  AUC0-24h: 5310 ± 1650 ng·h/mL
  CL/F: 77.0 ± 20.3^c ml/h
  Cmax: 0.913 ± 0.248 µg/mL
  Tmax: 1.8 ± 1.2 h
  t1/2: 2.8 ± 0.2 h
[1]; [8]
  AUC0-6h: 438 ± 118^a h*ng/ml
  CL/F: 76.0 ± 39.2^b ml/h
  Cmax: 177 ± 73.0^a ng/ml
  Tmax: 1.0 ± 0 h
  t1/2: 2.5 ± 1.7 h
[1]; [9]
  AUC0-24h: 6140 ± 1330^b h*ng/ml
  CL/F: 64.3 ± 13.6^a ml/h
  Cmax: 0.586 ± 0.128 µg/mL
  Tmax: 3.5 ± 2.3 h
  t1/2: 3.1 ± 0.2 h
[1]; [10]
  AUC0-6h: 165.6 ± 47.6 ng·h/mL
  CL/F: 180 ± 140 mL/h
  Cmax: 0.0746 ± 0.0315 µg/mL
  Tmax: 1.0 ± 0 h
  t1/2: 5.9 ± 6.1 h
[1]; [11]
  AUC0-24h: 3700 ± 911 ng·h/mL
  CL/F: 107 ± 27.9 mL/h
  Cmax: 0.669 ± 0.251 µg/mL
  Tmax: 1.8 ± 1.3 h
  t1/2: 3.4 ± 1.2 h

## O=C(O)[C@H]1O[C@@H](Nc2ccc3c(n2)[nH]c2ccccc23)[C@H](O)[C@@H](O)[C@@H]1O [AαC-N^2-Glu, N^2-(β-1-glucosidurony1)-2-amino-9H-pyrido[2,3-b]indole]
[1]; AαC 13.6 mg/kg by gavage, plasma (abstract)
  Cmax and AUC0-24h, fold higher in LCN than in WT mice: 4-24 fold
[1]; AαC 13.6 mg/kg oral gavage
  AUC 0-24 h in plasma, fold greater in LCN mice than in WT mice: ~ 6 fold
  Cmax in plasma, fold greater in LCN mice than in WT mice: 4.5 fold
  clearance rate, fold lower in LCN mice than in WT mice: 6.6 fold
[1]; [7]
  AUC0-24h: 150 ± 30.0 ng·h/mL
  CL/F: 3180 ± 1031 mL/h
  Cmax: 0.0424 ± 0.0154 µg/mL
  Tmax: 1.8 ± 1.2 h
  t1/2: 2.5 ± 2.2 h
[1]; [8]
  AUC0-6h: 195 ±78.7^a h*ng/ml
  CL/F: 207 ± 100^a ml/h
  Cmax: 74.3 ± 48.6^a ng/ml
  t1/2: 1.5 ± 0.8 h
[1]; [9]
  AUC0-24h: 803 ± 241^a h*ng/ml
  CL/F: 543 ± 148^a ml/h
  Cmax: 186 ± 85.0^b ng/ml
  Tmax: 1.0 ± 0 h
  t1/2: 2.1 ± 0.5 h
[1]; [10]
  AUC0-6h: 40.5 ± 16.6 ng·h/mL
  CL/F: 985 ± 372 mL/h
  Cmax: 0.0192 ± 0.0135 µg/mL
  t1/2: 1.4 ± 0.7 h
[1]; [11]
  AUC0-24h: 128 ± 26.8 ng·h/mL
  CL/F: 3610 ± 566 mL/h
  Cmax: 0.0402 ± 0.0096 µg/mL
  Tmax: 1.0 ± 0 h
  t1/2: 1.5 ± 0.7 h

## COc1ccc2nc3ccc(=O)cc-3oc2c1 [MROD, methoxyresorufin]
Liver microsomal P450 [2]
  MROD activity, fold decrease in LCN liver microsomes compared to WT microsomes: greater than 10 fold

## Cc1cnc2ccc3c(nc(N)n3C)c2n1 [MeIQx, 2-amino-3,8-dimethylimidaz[4,5-f]quinoxaline]
Liver microsomal P450 [2]; LCN mouse liver microsomes
  P450 Oxidation: 67 ± 44 pmol/min/mg protein
Liver microsomal P450 [2]; WT mouse liver microsomes
  levels of metabolism, fold greater than AαC: 3 to 4 fold
  P450 Oxidation: 404 ± 155 pmol/min/mg protein
Liver microsomal P450 [3]
  P450 Oxidation: 1010 ± 155 pmol/min/mg protein

## Cn1c(N)nc2ncc(-c3ccccc3)cc21 [PhIP, 2-amino-1-methyl-6-phenylimidazo[4,5-b]pyridine]
Liver microsomal P450 [2]; WT mouse liver microsomes
  levels of metabolism, fold greater than AαC: 3 to 4 fold
  P450 Oxidation: 362 ± 120 pmol/min/mg protein
Liver microsomal P450 [3]
  P450 Oxidation: 1440 ± 280 pmol/min/mg protein
DNA [5]
  levels of DNA adducts in Cyp1a2-null vs WT mice: ten-fold lower
DNA [6]
  PhIP-DNA adduct levels in liver of RCN compared to WT mice: unchanged

## Cc1nc2c([nH]1)c(=O)n(C)c(=O)n2Cc1ccco1 [furafylline]
P450 1A2
  inhibition of dG-C8-AαC adduct formation: only partially inhibited
